Measured values from US12662479B2 (Foghorn Therapeutics Inc., priority 2020, dated 2026).

Key:
[1] = biological target: T1, HiBit-BRG1 fusion protein (Homo sapiens, UniProt P51532); experiment: HiBiT-BRG1 cell-based degradation assay (Nano-Glo HiBiT Lytic Detection, 24 h); settings: HeLa cells expressing HiBit-BRG1 and LgBit; for DC50: read-out: BRG1 HiBit Degradation IC50; for Dmax: HeLa, top dose 30 μM, read-out: BRG1 HiBit Degradation Maximum measured
T1 construct: expressed in transfected cells
Method in brief: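 Stable HeLa line expressing HiBiT-BRG1 and LgBiT, seeded at 5000 cells/well; luminescence read after lytic Nano-Glo HiBiT reagent and 10 min shaking at RT. % degradation normalised between DMSO (high control) and 2 μM reference BRM/BRG1 degrader (low control).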

HiBit-BRM fusion protein = biological target: T2, HiBit-BRM fusion protein (Homo sapiens, UniProt P51531); experiment: HiBiT-BRM cell-based degradation assay (Nano-Glo HiBiT Lytic Detection, 24 h); settings: HeLa cells expressing HiBiT-BRM; for DC50: read-out: BRM HiBit Degradation IC50; for BRM HiBit Degradation Maximum measured: top dose 30 μM
T2 construct: expressed in transfected cells
Method in brief: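 HeLa cells stably expressing HiBiT-BRM were dosed with compounds (10-point 3-fold dilutions, 30 μM final top dose, duplicate) for 24 h. HiBiT signal was read by lytic LgBiT complementation luminescence. Percent degradation was normalised to DMSO (high control) and 2 μM of a reference BRM/BRG1 degrader (low control).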

T2 sequence (P51531 whole entry, the tested form may be a part): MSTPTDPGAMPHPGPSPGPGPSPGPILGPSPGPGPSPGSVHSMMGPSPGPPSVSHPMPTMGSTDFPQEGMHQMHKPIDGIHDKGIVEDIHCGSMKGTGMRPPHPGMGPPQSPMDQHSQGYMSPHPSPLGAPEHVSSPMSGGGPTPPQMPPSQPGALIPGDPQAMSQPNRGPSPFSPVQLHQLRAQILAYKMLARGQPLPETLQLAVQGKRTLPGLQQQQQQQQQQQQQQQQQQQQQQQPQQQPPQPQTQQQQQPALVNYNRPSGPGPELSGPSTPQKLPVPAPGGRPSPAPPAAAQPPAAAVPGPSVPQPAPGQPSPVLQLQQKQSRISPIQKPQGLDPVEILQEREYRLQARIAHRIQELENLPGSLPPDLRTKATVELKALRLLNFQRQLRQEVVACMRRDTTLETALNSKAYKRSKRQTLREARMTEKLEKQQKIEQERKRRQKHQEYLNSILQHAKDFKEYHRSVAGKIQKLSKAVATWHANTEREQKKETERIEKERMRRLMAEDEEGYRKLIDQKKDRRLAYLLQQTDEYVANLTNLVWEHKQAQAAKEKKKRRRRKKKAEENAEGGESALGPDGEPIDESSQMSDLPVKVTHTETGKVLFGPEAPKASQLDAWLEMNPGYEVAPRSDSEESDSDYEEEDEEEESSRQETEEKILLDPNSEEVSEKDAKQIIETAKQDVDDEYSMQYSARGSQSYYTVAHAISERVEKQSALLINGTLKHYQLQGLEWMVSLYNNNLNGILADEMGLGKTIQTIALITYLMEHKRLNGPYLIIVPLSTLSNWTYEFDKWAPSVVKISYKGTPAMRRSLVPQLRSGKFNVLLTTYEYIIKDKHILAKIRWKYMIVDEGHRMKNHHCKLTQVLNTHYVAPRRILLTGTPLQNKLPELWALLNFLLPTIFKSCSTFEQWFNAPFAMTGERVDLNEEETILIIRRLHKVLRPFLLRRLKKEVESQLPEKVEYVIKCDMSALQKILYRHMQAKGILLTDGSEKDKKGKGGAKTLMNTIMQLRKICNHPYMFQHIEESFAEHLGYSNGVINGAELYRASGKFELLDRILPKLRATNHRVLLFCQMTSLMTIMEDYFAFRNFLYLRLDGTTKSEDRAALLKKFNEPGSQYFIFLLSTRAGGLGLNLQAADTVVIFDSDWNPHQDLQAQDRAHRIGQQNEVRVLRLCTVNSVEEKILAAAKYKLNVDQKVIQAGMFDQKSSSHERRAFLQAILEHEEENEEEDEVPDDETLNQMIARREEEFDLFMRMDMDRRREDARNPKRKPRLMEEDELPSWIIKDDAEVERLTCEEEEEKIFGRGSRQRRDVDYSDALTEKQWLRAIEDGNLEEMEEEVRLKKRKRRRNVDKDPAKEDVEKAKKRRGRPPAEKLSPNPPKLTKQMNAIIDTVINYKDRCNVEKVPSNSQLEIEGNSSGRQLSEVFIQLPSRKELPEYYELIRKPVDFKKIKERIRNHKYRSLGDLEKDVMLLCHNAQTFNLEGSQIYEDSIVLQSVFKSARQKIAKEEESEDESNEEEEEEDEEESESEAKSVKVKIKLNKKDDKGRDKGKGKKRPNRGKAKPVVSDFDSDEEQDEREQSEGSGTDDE
T1 sequence (P51532 whole entry, the tested form may be a part): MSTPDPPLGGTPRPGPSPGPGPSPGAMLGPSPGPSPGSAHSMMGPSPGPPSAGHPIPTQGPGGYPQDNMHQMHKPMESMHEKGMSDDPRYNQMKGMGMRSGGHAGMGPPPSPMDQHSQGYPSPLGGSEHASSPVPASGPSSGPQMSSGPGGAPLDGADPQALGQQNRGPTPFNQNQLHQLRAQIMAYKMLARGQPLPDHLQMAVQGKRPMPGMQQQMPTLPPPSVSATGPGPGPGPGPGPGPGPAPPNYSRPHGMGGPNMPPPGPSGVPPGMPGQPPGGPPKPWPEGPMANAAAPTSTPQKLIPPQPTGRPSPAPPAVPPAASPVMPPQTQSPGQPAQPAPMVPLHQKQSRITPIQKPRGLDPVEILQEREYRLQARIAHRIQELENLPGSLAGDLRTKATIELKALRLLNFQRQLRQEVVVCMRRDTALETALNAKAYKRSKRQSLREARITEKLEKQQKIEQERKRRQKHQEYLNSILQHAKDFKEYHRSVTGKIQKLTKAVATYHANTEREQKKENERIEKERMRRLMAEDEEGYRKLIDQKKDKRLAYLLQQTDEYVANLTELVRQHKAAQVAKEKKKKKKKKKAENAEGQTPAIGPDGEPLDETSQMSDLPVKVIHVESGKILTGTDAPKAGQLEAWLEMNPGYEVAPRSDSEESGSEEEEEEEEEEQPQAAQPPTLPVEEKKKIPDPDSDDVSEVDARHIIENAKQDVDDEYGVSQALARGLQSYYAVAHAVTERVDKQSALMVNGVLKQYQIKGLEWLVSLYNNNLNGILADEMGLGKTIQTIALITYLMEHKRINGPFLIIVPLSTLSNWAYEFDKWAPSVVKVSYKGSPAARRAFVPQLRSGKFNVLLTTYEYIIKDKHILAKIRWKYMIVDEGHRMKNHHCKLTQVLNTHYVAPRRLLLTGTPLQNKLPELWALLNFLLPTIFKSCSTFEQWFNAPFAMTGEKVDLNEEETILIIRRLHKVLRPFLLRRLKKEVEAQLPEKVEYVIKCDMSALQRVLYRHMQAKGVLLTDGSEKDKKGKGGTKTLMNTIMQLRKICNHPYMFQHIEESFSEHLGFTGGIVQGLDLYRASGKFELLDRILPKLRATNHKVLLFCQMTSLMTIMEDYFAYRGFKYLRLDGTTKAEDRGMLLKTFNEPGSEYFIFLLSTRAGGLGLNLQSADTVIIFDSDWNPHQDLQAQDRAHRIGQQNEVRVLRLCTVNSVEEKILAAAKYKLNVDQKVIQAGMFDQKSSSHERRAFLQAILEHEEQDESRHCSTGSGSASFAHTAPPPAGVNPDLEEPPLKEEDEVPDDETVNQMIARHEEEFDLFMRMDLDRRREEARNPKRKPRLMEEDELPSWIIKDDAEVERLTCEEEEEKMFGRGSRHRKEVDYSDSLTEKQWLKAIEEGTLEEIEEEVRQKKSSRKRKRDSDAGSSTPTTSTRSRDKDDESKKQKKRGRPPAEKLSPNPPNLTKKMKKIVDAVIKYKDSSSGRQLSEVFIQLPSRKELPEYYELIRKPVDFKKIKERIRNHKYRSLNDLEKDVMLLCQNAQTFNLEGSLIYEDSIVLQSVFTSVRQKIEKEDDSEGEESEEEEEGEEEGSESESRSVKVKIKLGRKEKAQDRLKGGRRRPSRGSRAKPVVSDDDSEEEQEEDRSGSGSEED

Row | Compound | DC50 [1] | Dmax [1] | DC50 (HiBit-BRM fusion protein) | BRM HiBit Degradation Maximum measured (HiBit-BRM fusion protein)
1 | Cc1ncsc1-c1ccc(CNC(=O)[C@@H]2C[C@@H](O)CN2C(=O)[C@@H](NC(=O)CCCCCC(=O)NCc2cccc(-c3cccc(-c4csc(NC(=O)CNC(=O)c5ccn(S(C)(=O)=O)c5)n4)c3)c2)C(C)(C)C)cc1 [Compound 62, N1-((S)-1-((2S,4R)-4-hydroxy-2-((4-(4-methylthiazol-5-yl)benzyl)carbamoyl)pyrrolidin-1-yl)-3,3-dimethyl-1-oxobutan-2-yl)-N7-((3′-(2-(2-(1-(methylsulfonyl)-1H-pyrrole-3-carboxamido)acetamido)thiazol-4-yl)-[1,1′-biphenyl]-3-yl)methyl)heptanediamide] | 0.1 to 1 µM | > 75% | 0.1 to 1 µM | A (‘A’ = Maximum degradation >75%)
2 | Cc1ncsc1-c1ccc(CNC(=O)[C@@H]2C[C@@H](O)CN2C(=O)[C@@H](NC(=O)CCC(=O)NCc2cccc(-c3cccc(-c4csc(NC(=O)CNC(=O)c5ccn(S(C)(=O)=O)c5)n4)c3)c2)C(C)(C)C)cc1 [Compound 63, N1-((S)-1-((2S,4R)-4-hydroxy-2-((4-(4-methylthiazol-5-yl)benzyl)carbamoyl)pyrrolidin-1-yl)-3,3-dimethyl-1-oxobutan-2-yl)-N4-((3′-(2-(2-(1-(methylsulfonyl)-1H-pyrrole-3-carboxamido)acetamido)thiazol-4-yl)-[1,1′-biphenyl]-3-yl)methyl)succinamide] | > 10 µM | < 50% | > 10 µM | C (‘C’ = Maximum degradation <50%)
3 | CS(=O)(=O)n1ccc(C(=O)NCC(=O)Nc2nc(-c3cccc(-c4cccc(CNC(=O)CCOCCOCCOc5cccc6c5C(=O)N(C5CCC(=O)NC5=O)C6=O)c4)c3)cs2)c1 (stereo not shown) [Compound 64, N-[2-[[4-[3-[3-[[3-[2-[2-[2-(2,6-dioxo-3-piperidyl)-1,3-dioxo-isoindolin-4-yl]oxyethoxy]ethoxy]propanoylamino]-methyl]phenyl]phenyl]thiazol-2-yl]amino]-2-oxo-ethyl]-1-methylsulfonyl-pyrrole-3-carboxamide] | > 10 µM | < 50% | > 10 µM | C (‘C’ = Maximum degradation <50%)
4 | CN(CC(=O)NCCCCNc1ccc2c(c1)C(=O)N(C1CCC(=O)NC1=O)C2=O)c1cc(-c2cccc(-c3csc(NC(=O)CNC(=O)c4ccn(S(C)(=O)=O)c4)n3)c2)ccn1 (stereo not shown) [Compound 67] | > 10 µM | < 50% | > 10 µM | C (‘C’ = Maximum degradation <50%)
5 | CS(=O)(=O)n1ccc(C(=O)NCC(=O)Nc2nc(-c3cccc(-c4ccnc(OCCNC(=O)CCOCCOCCOc5cccc6c5C(=O)N(C5CCC(=O)NC5=O)C6=O)c4)c3)cs2)c1 (stereo not shown) [Compound 68, N-[2-[[4-[3-[2-[2-[3-[2-[2-[2-(2,6-dioxo-3-piperidyl)-1,3-dioxoisoindolin-4-yl]oxyethoxy]ethoxy]propanoylamino]ethoxy]-4-pyridyl]phenyl]thiazol-2-yl]amino]-2-oxo-ethyl]-1-methylsulfonyl-pyrrole-3-carboxamide] | 0.1 to 1 µM | 50 to 75% | 0.1 to 1 µM | B (‘B’ = Maximum degradation ≥50% and ≤75%)
6 | Cc1ncsc1-c1ccc(CNC(=O)[C@@H]2C[C@@H](O)CN2C(=O)[C@@H](NC(=O)COCC(=O)N2CCN(c3cc(-c4cccc(-c5csc(NC(=O)CNC(=O)c6ccn(S(C)(=O)=O)c6)n5)c4)ccn3)CC2)C(C)(C)C)cc1 [Compound 72, N-[2-[[4-[3-[2-[4-[2-[2-[[(1S)-1-[(2S,4R)-4-hydroxy-2-[[4-(4-methylthiazol-5-yl)phenyl]methylcarbamoyl]pyrrolidine-1-carbonyl]-2,2-dimethyl-propyl]amino]-2-oxo-ethoxy]acetyl]piperazin-1-yl]-4-pyridyl]phenyl]thiazol-2-yl]amino]-2-oxo-ethyl]-1-methylsulfonyl-pyrrole-3-carboxamide] | > 10 µM | < 50% | > 10 µM | C (‘C’ = Maximum degradation <50%)
7 | CS(=O)(=O)n1ccc(C(=O)NCC(=O)Nc2nc(-c3cccc(-c4ccnc(N5CCN(C(=O)CCOCCOCCOc6ccc7c(c6)C(=O)N(C6CCC(=O)NC6=O)C7=O)CC5)c4)c3)cs2)c1 (stereo not shown) [Compound 73, N-[2-[[4-[3-[2-[4-[3-[2-[2-[2-(2,6-dioxo-3-piperidyl)-1,3-dioxo-isoindolin-5-yl]oxyethoxy]ethoxy]propanoyl]piperazin-1-yl]-4-pyridyl]phenyl]thiazol-2-yl]amino]-2-oxo-ethyl]-1-methylsulfonyl-pyrrole-3-carboxamide] | 0.1 to 1 µM | > 75% | 0.1 to 1 µM | A (‘A’ = Maximum degradation >75%)
8 | Cc1ncsc1-c1ccc(CNC(=O)[C@@H]2C[C@@H](O)CN2C(=O)[C@@H](NC(=O)CCC(=O)N2CCN(c3cc(-c4cccc(-c5csc(NC(=O)CNC(=O)c6ccn(S(C)(=O)=O)c6)n5)c4)ccn3)CC2)C(C)(C)C)cc1 [Compound 74, N-[2-[[4-[3-[2-[4-[4-[[(1S)-1-[(2S,4R)-4-hydroxy-2-[[4-(4-methylthiazol-5-yl)phenyl]methylcarbamoyl]pyrrolidine-1-carbonyl]-2,2-dimethyl-propyl]amino]-4-oxo-butanoyl]piperazin-1-yl]-4-pyridyl]phenyl]thiazol-2-yl]amino]-2-oxo-ethyl]-1-methylsulfonyl-pyrrole-3-carboxamide] | > 10 µM | < 50% | > 10 µM | C (‘C’ = Maximum degradation <50%)
9 | Cc1ncsc1-c1ccc(CNC(=O)[C@@H]2C[C@@H](O)CN2C(=O)[C@@H](NC(=O)COCCOCC(=O)N2CCN(c3cc(-c4cccc(-c5csc(NC(=O)CNC(=O)c6ccn(S(C)(=O)=O)c6)n5)c4)ccn3)CC2)C(C)(C)C)cc1 [Compound 75, N-(2-((4-(3-(2-(4-(2-(2-(2-(((S)-1-((2S,4R)-4-hydroxy-2-((4-(4-methylthiazol-5-yl)benzyl)carbamoyl)pyrrolidin-1-yl)-3,3-dimethyl-1-oxobutan-2-yl)amino)-2-oxoethoxy)ethoxy)acetyl)piperazin-1-yl)pyridin-4-yl)phenyl)thiazol-2-yl)amino)-2-oxoethyl)-1-(methylsulfonyl)-1H-pyrrole-3-carboxamide] | 0.1 to 1 µM | > 75% | 0.1 to 1 µM | B (‘B’ = Maximum degradation ≥50% and ≤75%)

Now from value to compound:

Row | DC50 [1] | Dmax [1] | DC50 (HiBit-BRM fusion protein) | BRM HiBit Degradation Maximum measured (HiBit-BRM fusion protein) | Compound
10 | < 0.1 µM | > 75% | < 0.1 µM | A (‘A’ = Maximum degradation >75%) | Cc1ncsc1-c1ccc(CNC(=O)[C@@H]2C[C@@H](O)CN2C(=O)[C@@H](NC(=O)CCCCCCCCCC(=O)NCc2cccc(-c3cccc(-c4csc(NC(=O)CNC(=O)c5ccn(S(C)(=O)=O)c5)n4)c3)c2)C(C)(C)C)cc1 [Compound 65, N1-((S)-1-((2S,4R)-4-hydroxy-2-((4-(4-methylthiazol-5-yl)benzyl)carbamoyl)pyrrolidin-1-yl)-3,3-dimethyl-1-oxobutan-2-yl)-N11-((3′-(2-(2-(1-(methylsulfonyl)-1H-pyrrole-3-carboxamido)acetamido)thiazol-4-yl)-[1,1′-biphenyl]-3-yl)methyl)undecanediamide]
11 | 0.1 to 1 µM | > 75% | < 0.1 µM | A (‘A’ = Maximum degradation >75%) | Cc1ncsc1-c1ccc(CNC(=O)[C@@H]2C[C@@H](O)CN2C(=O)[C@@H](NC(=O)CCCCCCCCC(=O)NCCOc2cc(-c3cccc(-c4csc(NC(=O)CNC(=O)c5ccn(S(C)(=O)=O)c5)n4)c3)ccn2)C(C)(C)C)cc1 [Compound 69, N1-((S)-1-((2S,4R)-4-hydroxy-2-((4-(4-methylthiazol-5-yl)benzyl)carbamoyl)pyrrolidin-1-yl)-3,3-dimethyl-1-oxobutan-2-yl)-N10-(2-((4-(3-(2-(2-(1-(methylsulfonyl)-1H-pyrrole-3-carboxamido)acetamido)thiazol-4-yl)phenyl)pyridin-2-yl)oxy)ethyl)decanediamide]
12 | > 10 µM | < 50% | > 10 µM | C (‘C’ = Maximum degradation <50%) | Cc1ncsc1-c1ccc(CNC(=O)[C@@H]2C[C@@H](O)CN2C(=O)[C@@H](NC(=O)COCCOCC(=O)NCCOc2cc(-c3cccc(-c4csc(NC(=O)CNC(=O)c5ccn(S(C)(=O)=O)c5)n4)c3)ccn2)C(C)(C)C)cc1 [Compound 71, N-(2-((4-(3-(2-(((S)-13-((2S,4R)-4-hydroxy-2-((4-(4-methylthiazol-5-yl)benzyl)carbamoyl)pyrrolidine-1-carbonyl)-14,14-dimethyl-4,11-dioxo-6,9-dioxa-3,12-diazapentadecyl)oxy)pyridin-4-yl)phenyl)thiazol-2-yl)amino)-2-oxoethyl)-1-(methylsulfonyl)-1H-pyrrole-3-carboxamide]
13 | > 10 µM | < 50% | > 10 µM | C (‘C’ = Maximum degradation <50%) | Cc1ncsc1-c1ccc(CNC(=O)[C@@H]2C[C@@H](O)CN2C(=O)[C@@H](NC(=O)CCC(=O)NCCOc2cc(-c3cccc(-c4csc(NC(=O)CNC(=O)c5ccn(S(C)(=O)=O)c5)n4)c3)ccn2)C(C)(C)C)cc1 [Compound 76, N′-[(1S)-1-[(2S,4R)-4-hydroxy-2-[[4-(4-methylthiazol-5-yl)phenyl]methylcarbamoyl]pyrrolidine-1-carbonyl]-2,2-dimethyl-propyl]-N-[2-[[4-[3-[2-[[2-[(1-methylsulfonylpyrrole-3-carbonyl)amino]acetyl]amino]thiazol-4-yl]phenyl]-2-pyridyl]oxy]ethyl]butanediamide]
